Experiment [1] addresses T1, Glycogen phosphorylase, muscle form (Oryctolagus cuniculus, UniProt P00489).
T1 sequence (P00489 whole entry): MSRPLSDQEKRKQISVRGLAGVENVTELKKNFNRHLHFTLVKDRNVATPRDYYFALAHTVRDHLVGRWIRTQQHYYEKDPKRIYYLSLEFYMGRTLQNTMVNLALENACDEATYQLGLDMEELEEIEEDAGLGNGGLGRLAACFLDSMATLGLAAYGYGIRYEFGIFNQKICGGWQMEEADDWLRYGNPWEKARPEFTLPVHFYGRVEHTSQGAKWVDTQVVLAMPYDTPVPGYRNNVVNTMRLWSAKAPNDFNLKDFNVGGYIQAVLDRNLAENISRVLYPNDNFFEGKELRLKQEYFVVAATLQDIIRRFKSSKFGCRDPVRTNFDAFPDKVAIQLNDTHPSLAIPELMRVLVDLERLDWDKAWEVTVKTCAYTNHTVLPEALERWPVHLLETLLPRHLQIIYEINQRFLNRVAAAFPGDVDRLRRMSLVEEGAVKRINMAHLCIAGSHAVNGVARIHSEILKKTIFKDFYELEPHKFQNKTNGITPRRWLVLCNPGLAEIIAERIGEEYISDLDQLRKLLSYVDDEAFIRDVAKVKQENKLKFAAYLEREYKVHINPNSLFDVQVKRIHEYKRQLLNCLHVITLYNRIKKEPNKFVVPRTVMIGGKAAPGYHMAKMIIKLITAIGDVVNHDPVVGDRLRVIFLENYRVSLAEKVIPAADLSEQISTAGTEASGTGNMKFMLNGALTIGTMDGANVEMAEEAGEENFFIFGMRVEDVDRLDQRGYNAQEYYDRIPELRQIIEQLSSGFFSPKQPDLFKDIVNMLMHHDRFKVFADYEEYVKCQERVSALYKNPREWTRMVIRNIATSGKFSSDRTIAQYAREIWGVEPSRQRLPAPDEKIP
Nature of the experiment: Inhibition of rabbit muscle glycogen phosphorylase b by cheng-prusoff equation.

The target of experiment [2] is T1, Glycogen phosphorylase, muscle form. Nature of the experiment: Inhibition of rabbit muscle glycogen phosphorylase b.

What is called Ki is a dissociation constant, usually derived from enzyme kinetics or from competition with a known ligand. One may read the IC50 as the concentration that gives 50% inhibition. A higher IC50 goes with weaker potency in that assay.

Regarding `O=C(N[C@@H]1O[C@H](CO)[C@@H](O)[C@H](O)[C@H]1O)c1cc(Br)c2c(c1)OCCO2`, the inhibitory constant (Ki) in experiment [1] stood at 268 µM. Further, half-maximal inhibition in experiment [2] (IC50) required 670 µM.
Consider `COc1cc(C(=O)N[C@@H]2O[C@H](CO)[C@@H](O)[C@H](O)[C@H]2O)cc2c1OCCO2`, for which the Ki in experiment [1] was found to be 232 µM. Besides, the midpoint of inhibition in experiment [2], the IC50, lay at 580 µM.
On to `O=C(N[C@@H]1O[C@H](CO)[C@@H](O)[C@H](O)[C@H]1O)[C@@H]1COc2ccccc2O1`, for which the affinity in experiment [1] corresponds to a Ki of 120 µM. This compound also came in with a half-inhibitory concentration (IC50) in experiment [2] of 300 µM.
As for `O=C(N[C@@H]1O[C@H](CO)[C@@H](O)[C@H](O)[C@H]1O)[C@H]1COc2ccccc2O1`, the Ki in experiment [1] is 128 µM. The compound also came in with a half-inhibitory concentration (IC50) in experiment [2] of 320 µM.
In turn, `O=C(N[C@@H]1O[C@H](CO)[C@@H](O)[C@H](O)[C@H]1O)C1=COc2ccccc2O1` registered an inhibition constant Ki in experiment [1] of 85 µM. Moreover, half-maximal inhibition in experiment [2] (IC50) was put at 125 µM.
In experiment [1], `O=C(N[C@@H]1O[C@H](CO)[C@@H](O)[C@H](O)[C@H]1O)c1ccc2c(c1)OCCO2` yielded a Ki of 252 µM. The compound also showed an IC50 in experiment [2] of 630 µM.
